Consider four compounds from the NIST ThermoML archive (doi:10.1016/j.fluid.2015.10.016).

For data set [1] the following is noted: Crystal; DTA.
Data set [2] is described as follows: Molar enthalpy of transition or fusion. As to conditions: Crystal; DSC.

Numbers after ± are expanded uncertainties.

On to `CCCC[N+]1(C)CCCC1.N#C[B-](C#N)(C#N)C#N` [1-butyl-1-methylpyrrolidinium tetracyanoborate], for which the Normal melting temperature in data set [1] stood at 19.7 ± 0.4 °C. Besides, the “Molar enthalpy of transition or fusion” value in data set [2] is 4.97 ± 0.117 kcal/mol.

`CCCC[N+]1(C)CCCC1.O=S(=O)([O-])C(F)(F)F` [1-butyl-1-methylpyrrolidinium trifluoromethanesulfonate]: the Normal melting temperature in data set [1] was -0.2 ± 0.4 °C. For the same compound, the “Molar enthalpy of transition or fusion” value in data set [2] was found to be 2.88 ± 0.0908 kcal/mol.

In the case of `OCCc1ccccc1` [2-phenylethanol], in data set [1], the Normal melting temperature was -27 ± 1 °C. Further, the “Molar enthalpy of transition or fusion” value in data set [2] stood at 2.31 ± 0.0956 kcal/mol.

In the case of `CCCC[N+]1(C)CCCC1.N#CC(=C=[N-])C#N` [1-butyl-1-methylpyrrolidinium tricyanomethanide], the Normal melting temperature in data set [1] was -8.8 ± 0.4 °C. For the same compound, in data set [2], the “Molar enthalpy of transition or fusion” value is 2.25 ± 0.0789 kcal/mol.
